Test results taken from ChEMBL document CHEMBL2150898, “Discovery of AM-1638: A Potent and Orally Bioavailable GPR40/FFA1 Full Agonist” (ACS Med Chem Lett, 2012).
Calls of active or inactive are those of the source. The calls are words filed in the database; no cut-off is given here.

What was measured:
[1] = target: T1, Free fatty acid receptor 1 (Homo sapiens, UniProt O14842); test: Agonist activity at GPR40 expressed in CHO cells assessed as intrinsic efficacy after 20 seconds by aequorin bioluminescence assay in presence of 0.1 % human serum relative to AM-1638; assay type: functional, cell-based
T1 sequence (O14842 whole entry): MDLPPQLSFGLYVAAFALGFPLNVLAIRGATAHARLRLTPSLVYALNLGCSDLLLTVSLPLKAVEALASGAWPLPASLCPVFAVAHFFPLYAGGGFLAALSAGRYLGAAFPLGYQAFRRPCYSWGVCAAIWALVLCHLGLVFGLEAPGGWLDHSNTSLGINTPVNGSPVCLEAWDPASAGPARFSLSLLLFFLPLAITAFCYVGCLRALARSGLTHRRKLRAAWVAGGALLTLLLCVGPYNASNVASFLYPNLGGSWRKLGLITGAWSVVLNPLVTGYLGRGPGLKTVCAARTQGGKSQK

[2] = target: T1, Free fatty acid receptor 1; test: Agonist activity at GPR40 expressed in CHO cells after 20 seconds by aequorin bioluminescence assay in presence of 0.1 % human serum; assay type: functional, cell-based
[3] = target: T1, Free fatty acid receptor 1; test: Agonist activity at GPR40 expressed in CHO cells after 20 seconds by aequorin bioluminescence assay in presence of 100 % human serum; assay type: functional, cell-based
Mus musculus [4] = test: Antidiabetic activity in DIO BDF mouse model assessed as increase in insulin AUC at 60 mg/kg, po administered 1 hr prior glucose-challenge challenge measured after 1 hr by ELISA; assay type: functional, organism-based; set-up: dose 60 mg/kg
Mus musculus [5] = test: Antidiabetic activity in DIO BDF mouse model assessed as increase in plasma insulin level at 60 mg/kg, po administered 1 hr prior glucose-challenge challenge measured after 1 hr by ELISA; assay type: functional, organism-based; set-up: dose 60 mg/kg
[6] = Tmax in cynomolgus monkey at 2 mg/kg, po and 0.5 mg/kg, iv; assay type: ADME, organism-based, Macaca fascicularis; settings: in vivo
[7] = Half life in rat at 0.5 mg/kg, iv; assay type: ADME, organism-based; set-up: dose 0.5 mg/kg, route intravenous; settings: in vivo
[8] = Clearance in cynomolgus monkey at 2 mg/kg, po and 0.5 mg/kg, iv; assay type: ADME, organism-based, Macaca fascicularis; settings: in vivo
[9] = Oral bioavailability in mouse at 5 mg/kg; assay type: ADME, organism-based; settings: in vivo
[10] = Cmax in rat at 2 mg/kg, po; assay type: ADME, organism-based; set-up: dose 2 mg/kg, route oral; settings: in vivo
[11] = Half life in cynomolgus monkey at 0.5 mg/kg, iv; assay type: ADME, organism-based, Macaca fascicularis; set-up: dose 0.5 mg/kg, route intravenous; settings: in vivo
[12] = Half life in mouse at 1 mg/kg, iv; assay type: ADME, organism-based; set-up: dose 1 mg/kg, route intravenous; settings: in vivo
[13] = Clearance in mouse at 5 mg/kg, po and 1 mg/kg, iv; assay type: ADME, organism-based; settings: in vivo
Mus musculus [14] = test: Antidiabetic activity in DIO BDF mouse model assessed as improvement in glucose-challenge AUC(0 to 60 mins) at 60 mg/kg, po administered 1 hr prior glucose-challenge challenge measured after 1 hr by OGTT; assay type: functional
[15] = Oral bioavailability in rat at 2 mg/kg; assay type: ADME, organism-based; settings: in vivo
[16] = Cmax in cynomolgus monkey at 2 mg/kg, po; assay type: ADME, organism-based, Macaca fascicularis; set-up: dose 2 mg/kg, route oral; settings: in vivo
[17] = Tmax in rat at 2 mg/kg, po and 0.5 mg/kg, iv; assay type: ADME, organism-based; settings: in vivo
Mus musculus [18] = test: Antidiabetic activity in DIO BDF mouse model assessed as reduction in blood glucose-challenge excursion at 60 mg/kg, po administered 1 hr prior glucose-challenge challenge measured after 1 hr by OGTT ( Rvb = 462 mg/dl ); assay type: functional
[19] = Tmax in mouse at 5 mg/kg, po and 1 mg/kg, iv; assay type: ADME, organism-based; settings: in vivo
[20] = Clearance in rat at 2 mg/kg, po and 0.5 mg/kg, iv; assay type: ADME, organism-based; settings: in vivo
[21] = Cmax in mouse at 5 mg/kg, po; assay type: ADME, organism-based; set-up: dose 5 mg/kg, route oral; settings: in vivo
[22] = Oral bioavailability in cynomolgus monkey at 2 mg/kg; assay type: ADME, organism-based, Macaca fascicularis; settings: in vivo

| Efficacy [1] | EC50 [2] | Structure (SMILES) | other results |
| --- | --- | --- | --- |
| 67% | 36000 nM | CC/C=C\C/C=C\C/C=C\C/C=C\C/C=C\C/C=C\CCC(=O)O [DOCONEXENT] |  |
| 59% | 1310 nM | COc1ccc(F)c(-c2ccc(COc3cccc([C@@H](CC(=O)O)C4CCCC4)c3)cc2C(C)(C)C)c1 |  |
| 106% | 420 nM | COc1ccc(F)c(-c2ccc(COc3cccc([C@@H](CC(=O)O)C4CCC4)c3)cc2C(C)(C)C)c1 |  |
| 110% | 680 nM | CC[C@H](CC(=O)O)c1cccc(OCc2ccc(-c3cc(OC)ccc3F)c(C(C)(C)C)c2)c1 |  |
| 80% | 1200 nM | COc1ccc(F)c(-c2ccc(COc3cccc([C@@H](CC(=O)O)c4ccccc4)c3)cc2C(C)(C)C)c1 |  |
| 107% | 770 nM | COc1ccc(F)c(-c2ccc(COc3cccc([C@H](C)CC(=O)O)c3)cc2C(C)(C)C)c1 |  |
| 105% | 7700 nM | CC#CC(CC(=O)O)c1ccc(OCc2ccc(-c3ccccc3)cc2)cc1 (racemic) |  |
| 94% | 690 nM | CCC[C@H](CC(=O)O)c1cccc(OCc2ccc(-c3cc(OC)ccc3F)c(C(C)(C)C)c2)c1 |  |
| 47% | 650 nM | CC#C[C@@H](CC(=O)O)c1ccc(OCc2ccc(-c3cccc(OC)c3)cc2)cc1 |  |
| 107% | 480 nM | COc1ccc(F)c(-c2ccc(COc3cccc([C@@H](CC(=O)O)C4CC4)c3)cc2)c1 | EC50 [3]: 38000 nM |
| 97% | 2300 nM | CC#C[C@H](CC(=O)O)c1ccc(OCc2ccc(-c3cc(OC)ccc3F)cc2)cc1 |  |
| 104% | 1200 nM | COc1ccc(F)c(-c2ccc(COc3cccc(CCC(=O)O)c3)cc2)c1 |  |
| 111% | 2100 nM | COc1ccc(F)c(-c2ccc(COc3cccc([C@@H](CC(=O)O)C(F)(F)F)c3)cc2C(C)(C)C)c1 |  |
| 96% | 1900 nM | COc1ccc(F)c(-c2ccc(COc3ccc(CCC(=O)O)cc3)cc2)c1 |  |
| 103% | 370 nM | COc1ccc(F)c(-c2ccc(COc3cccc([C@@H](CC(=O)O)C4CC4)c3)cc2C(C)(C)C)c1 | EC50 [3]: 1900 nM |
| 86% | 2200 nM | COc1ccc(F)c(-c2ccc(COc3cccc([C@@H](CC(=O)O)C(C)C)c3)cc2C(C)(C)C)c1 |  |
|  |  | COc1ccc(F)c(-c2ccc(COc3cccc([C@@H](CC(=O)O)C4CC4)c3)cc2C2=CCCC2(C)C)c1 | Activity (Mus musculus [4]): Active; EC50 [3]: 710 nM; Activity (Mus musculus [5]): Active; Tmax [6]: 2 h; half-life [7]: 1.8 h; clearance [8]: 13.5 mL/min/kg; bioavailability [9]: > 100%; Cmax [10]: 3.6 µM; half-life [11]: 2.1 h; half-life [12]: 2 h; clearance [13]: 3 mL/min/kg; Activity (Mus musculus [14]): 46%; bioavailability [15]: 72%; Cmax [16]: 5.1 µM; Tmax [17]: 3.5 h; Activity (Mus musculus [18]): 204 mg/dL; Tmax [19]: 1 h; clearance [20]: 15.2 mL/min/kg; Cmax [21]: 14 µM; bioavailability [22]: 71% |
| 76% | 1100 nM | COc1ccc(F)c(-c2ccc(COc3cccc([C@H](CC(=O)O)C4CC4)c3)cc2C2=CCCC2(C)C)c1 | EC50 [3]: 34000 nM |
| 100% | 900 nM | COc1ccc(F)c(-c2ccc(COc3cccc(CCC(=O)O)c3)cc2C(C)(C)C)c1 |  |
| 99% | 4000 nM | CC#C[C@H](CC(=O)O)c1ccc(OCc2ccc(-c3cccc(OC)c3)cc2)cc1 |  |
|  |  | CC#C[C@@H](CC(=O)O)c1ccc(OCc2cccc(-c3ccc(C(F)(F)F)cc3)c2)cc1 | Activity (Mus musculus [5]): inactive; Activity (Mus musculus [14]): 34%; Activity (Mus musculus [18]): 317 mg/dL |
| 98% | 2300 nM | CC#CC(CC(=O)O)c1ccc(OCc2ccc(-c3cccc(OC)c3)cc2)cc1 (racemic) |  |
| 41% | 2100 nM | COc1ccc(F)c(-c2ccc(COc3cccc([C@@H](CC(=O)O)C4CCCCC4)c3)cc2C(C)(C)C)c1 |  |
